ChEMBL document CHEMBL1132874, “Synthesis and structure-activity relationship of novel pyridyl ethers for the nicotinic acetylcholine receptor” (Bioorg Med Chem Lett, 2000)

Target: Neuronal acetylcholine receptor; alpha4/beta2 (Rattus norvegicus, UniProt P09483+P12390)
Experiment: Evaluated for binding affinity towards nicotinic acetylcholine receptor alpha4-beta2
Type: protein-complex assay

Sequence of Neuronal acetylcholine receptor; alpha4/beta2 (P09483 whole entry): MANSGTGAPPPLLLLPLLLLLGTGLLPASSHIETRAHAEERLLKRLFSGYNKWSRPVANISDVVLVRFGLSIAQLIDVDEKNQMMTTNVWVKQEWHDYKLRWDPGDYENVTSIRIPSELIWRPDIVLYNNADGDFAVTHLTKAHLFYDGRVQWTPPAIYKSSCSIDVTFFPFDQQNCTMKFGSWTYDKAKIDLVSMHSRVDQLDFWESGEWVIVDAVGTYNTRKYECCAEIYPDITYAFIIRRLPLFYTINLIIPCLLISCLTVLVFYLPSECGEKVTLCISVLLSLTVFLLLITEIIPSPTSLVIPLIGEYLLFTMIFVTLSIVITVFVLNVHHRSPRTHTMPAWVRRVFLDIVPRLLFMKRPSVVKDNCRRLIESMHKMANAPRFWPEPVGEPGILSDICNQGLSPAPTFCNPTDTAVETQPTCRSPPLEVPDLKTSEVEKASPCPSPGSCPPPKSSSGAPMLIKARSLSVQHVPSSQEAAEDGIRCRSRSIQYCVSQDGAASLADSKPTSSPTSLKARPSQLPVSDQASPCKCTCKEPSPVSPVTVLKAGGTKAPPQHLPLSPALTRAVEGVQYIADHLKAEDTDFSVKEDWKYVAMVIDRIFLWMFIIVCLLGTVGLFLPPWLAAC
Sequence of Neuronal acetylcholine receptor; alpha4/beta2 (P12390 whole entry): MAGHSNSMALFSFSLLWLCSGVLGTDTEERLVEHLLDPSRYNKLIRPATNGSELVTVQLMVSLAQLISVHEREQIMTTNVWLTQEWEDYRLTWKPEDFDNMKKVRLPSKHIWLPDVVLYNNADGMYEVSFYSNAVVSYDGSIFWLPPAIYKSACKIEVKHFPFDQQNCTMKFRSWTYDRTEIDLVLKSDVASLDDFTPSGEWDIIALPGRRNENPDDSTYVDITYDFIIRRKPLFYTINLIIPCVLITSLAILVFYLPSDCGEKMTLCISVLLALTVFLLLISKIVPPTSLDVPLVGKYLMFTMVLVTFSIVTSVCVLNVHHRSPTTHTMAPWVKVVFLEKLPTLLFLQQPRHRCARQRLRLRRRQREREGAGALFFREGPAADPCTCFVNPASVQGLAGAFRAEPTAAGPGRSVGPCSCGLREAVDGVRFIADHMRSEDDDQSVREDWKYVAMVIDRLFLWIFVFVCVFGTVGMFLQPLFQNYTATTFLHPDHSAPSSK

Row | SMILES | IC50 [nM]
1 | c1cc(-c2cncc(O[C@@H]3CCNC3)c2)ccn1 | 571
2 | Clc1cccc(-c2cc(O[C@@H]3CCNC3)cnc2Cl)c1 | 103
3 | Clc1cccc(-c2cncc(O[C@@H]3CCNC3)c2)c1 | 940
4 | Cc1cc(O[C@@H]2CCNC2)cnc1Cl | 64
5 | C=Cc1cncc(O[C@@H]2CCNC2)c1 | 883
6 | c1cncc(OC2CNC2)c1 | > 10000
7 | C=Cc1cc(O[C@@H]2CCNC2)cnc1Cl | 140
8 | CCN1CCC(Oc2cccnc2)C1 (stereo not given) | > 10000
9 | c1ccc(-c2cncc(O[C@@H]3CCNC3)c2)cc1 | 1820
10 | CC(C)N1CCC(Oc2cccnc2)C1 (stereo not given) | > 10000
11 | C#Cc1cncc(O[C@@H]2CCNC2)c1 | 62
12 | C#Cc1cc(O[C@@H]2CCNC2)cnc1Cl | 46
13 | Clc1ncc(O[C@@H]2CCNC2)cc1-c1ccncc1 | 65
14 | Clc1ncc(O[C@@H]2CCNC2)cc1-c1ccccc1 | 75
15 | N#Cc1ccc(-c2cncc(O[C@@H]3CCNC3)c2)cc1 | 544
